In brackets after ≈: the same amount, converted by molar mass. Counter-ions that a name gives are not always drawn.
Key:
[1] = system: influenza A virus, strain A/jifang/90-15; assay: microbe, parasite or virus in culture; assay type: cell-based; details: for IC50: Influenza A virus, Influenza strain A/jifang/90-15, MDCK cells, CPE, Reed-Muench, read-out: IC50; for SI: Influenza strain A/jifang/90-15
[2] = system: Madin-Darby canine kidney (MDCK) cells
[3] = system: HBV DNA; assay: In vitro anti-HBV activity: replication of HBV DNA in 2.2.15 cells (dot hybridization); assay type: cell-based, Hepatitis B virus (HBV); details: for IC50: Hepatitis B virus, read-out: DNA replication IC50; for DNA replication SI: selectivity index
In short: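 HBV-producing 2.2.15 cells exposed to 3-fold serial dilutions of compound (DMSO stocks diluted in medium); cells and supernatants harvested on day 8. Intracellular HBV DNA replication quantified by dot hybridization with α-32P-dCTP probe; HBsAg/HBeAg in supernatant by RIA.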

[4] = system: HBsAg; assay: In vitro anti-HBV activity: HBsAg production in HBV-infected 2.2.15 cells (RIA); assay type: cell-based, Hepatitis B virus (HBV); details: for IC50: Hepatitis B virus, read-out: HBsAg IC50; for HBsAg SI: selectivity index
Method: All compounds were evaluated for their anti-HBV activities, namely the ability to inhibit the replication of HBV DNA and the production of HBsAg and HBeAg in HBV-infected 2.2.15 cells.
The samples were dissolved in DMSO for appropriate concentrations, and then each was diluted 3-fold with culture medium. The 2.2.15 cells were planted into 96-well culture plates. […] The culture supernatants and 2.2.15 cells were collected respectively on the 8th plant day. The secretion concentrations of HBsAg and HBeAg in the culture supernatants were measured by RIA on SPRIA Kit for Detection of HBsAg and HBeAg (Beijing North Institute of Biological Technology), and the replication of HBV DNA was measured by dot hybridization with a^32PdCTP (FuRui Biological Technology Ltd., China).

[5] = system: 2.2.15 cells; assay: Cytotoxicity (TC50) in 2.2.15 cells; assay type: cell-based
[6] = biological target: T1, HIV-1 protease (Human immunodeficiency virus type 1 group M subtype B, UniProt P04585); assay: Anti-HIV-1 protease activity (fluorescence labeled substrate); assay type: biochemical
T1 construct: The genetically engineered target enzyme (HIV-1 protease, preserved at −85° C.)
Method: HIV-1 protease can cut the fluorescence labeled substrate under optimal condition and reaction system, so the activity of enzyme is determined by the fluorescence in the product of enzymatic reaction. The samples are added into the reaction system to observe the inhibitive effect on the enzyme.
The samples and the reference drug Indinavir ([…].) were dissolved in DMSO or redistilled water for appropriate concentration. Each was diluted 5-fold and then added into the buffer containing fluorescence labeled substrate (MP Co.). The genetically engineered target enzyme (HIV-1 protease, preserved at −85° C.) was added to the buffer and incubated under the optimal reaction condition. The fluorescence was determined by FLUO star Galaxy fluorometer.

CCOC(=O)c1c(CSc2ccccc2)n(C)c2cc(Br)c(O)c(CN(C)C)c12.Cl.O [Abidol, Ethyl 6-bromo-4-[(dimethylamino)methyl]-5-hydroxy-1-methyl-2-(phenyl-thiomethyl)-1H-indole-3-carboxylate hydrochloride monohydrate, reference compound]
IC50 [1]: 23.2 µg/mL
SI [1]: 2.69
TC50 [2]: 62.5 µg/mL

CCOC(=O)c1c(CSc2nc3ccccc3[nH]2)n(C)c2cc(Br)c(O)c(CN(C)C)c12 [Example 3, Ethyl 6-bromo-4-[(dimethylamino)methyl]-5-hydroxy-1-methyl-2-[(benzo[d]imidazol-2-yl)thiomethyl]-1H-indole-3-carboxylate]
IC50 [1]: 7.81 µg/mL (≈ 15.1 µM)
SI [1]: 1.59
TC50 [2]: 12.4 µg/mL (≈ 24 µM)

CCOC(=O)c1c(CSCc2ccc(F)cc2)n(C)c2cc(Br)c(O)c(CN(C)C)c12.Cl [Example 5, Ethyl 6-bromo-4-[(dimethylamino)methyl]-5-hydroxy-1-methyl-2-[(4-fluorobenzyl)thiomethyl]-1H-indole-3-carboxylate hydrochloride]
IC50 [1]: 7.81 µg/mL
SI [1]: 6.34
TC50 [2]: 49.51 µg/mL

CCOC(=O)c1c(CSCc2ccccc2F)n(C2CC2)c2cc(Br)c(O)c(CN3CCCC3)c12.Cl [Example 14, Ethyl 6-bromo-1-cyclopropyl-5-hydroxy-4-(1-pyrrolidinylmethyl)-2-[(2-fluorobenzyl)thiomethyl]-1H-indole-3-carboxylate hydrochloride]
IC50 [1]: 0.92 µg/mL
SI [1]: 2.7
TC50 [2]: 2.48 µg/mL

CCOC(=O)c1c(CSc2nc3ccc(OC)cc3[nH]2)n(C)c2cc(Br)c(O)c(CN3CCOCC3)c12 [Example 25, Ethyl 6-bromo-5-hydroxy-1-methyl-4-(morpholinomethyl)-2-[(5-methoxybenzo[d]imidazol-2-yl)thiomethyl]-1H-indole-3-carboxylate]
IC50 [1]: 22.1 µg/mL (≈ 37.5 µM)
SI [1]: 5.66
TC50 [2]: 125.0 µg/mL (≈ 212 µM)

CCOC(=O)c1c(C[S+]([O-])Cc2cscn2)n(C2CC2)c2cc(Br)c(O)c(CN(C)C)c12 (stereo not drawn) [Example 52, Ethyl 6-bromo-1-cyclopropyl-4-[(dimethylamino)methyl]-5-hydroxy-2-[(4-thiazolylmethyl)sulfinylmethyl]-1H-indole-3-carboxylate dihydrochloride]
IC50 [3]: 3.51 µg/mL
DNA replication SI [3]: 18.27
IC50 [4]: 4.79 µg/mL
HBsAg SI [4]: 13.39
TC50 [5]: 64.15 µg/mL

CCOC(=O)c1c(C[S+]([O-])Cc2ccco2)n(C)c2cc(Br)c(O)c(CN3CCCC3)c12 (stereo not drawn) [Example 71, Ethyl 6-bromo-5-hydroxy-1-methyl-4-(1-pyrrolidinylmethyl)-2-[(2-furylmethyl)sulfinylmethyl]-1H-indole-3-carboxylate]
IC50 [3]: 23.9 µg/mL (≈ 45.6 µM)
DNA replication SI [3]: 1.60
IC50 [4]: 18.4 µg/mL (≈ 35.1 µM)
HBsAg SI [4]: 2.09
TC50 [5]: 38.32 µg/mL (≈ 73.2 µM)

CCOC(=O)c1c(C[S+]([O-])c2ccc(C(F)(F)F)cc2)n(C2CC2)c2cc(Br)c(O)c(CN(C)C)c12 (stereo not drawn) [Example 79, Ethyl 6-bromo-1-cyclopropyl-4-[(dimethylamino)methyl]-5-hydroxy-2-[(4-trifluoromethylphenyl)sulfinylmethyl]-1H-indole-3-carboxylate]
IC50 [3]: 4.47 µg/mL (≈ 7.61 µM)
DNA replication SI [3]: 3.83
IC50 [4]: 6.3 µg/mL (≈ 10.7 µM)
HBsAg SI [4]: 2.72
TC50 [5]: 17.12 µg/mL (≈ 29.1 µM)

CCOC(=O)c1c(CS(=O)(=O)c2ccc(C(F)(F)F)cc2)n(C)c2cc(Br)c(O)c(CN3CCCC3)c12 [Example 82, Ethyl 6-bromo-5-hydroxy-1-methyl-4-(1-pyrrolidinylmethyl)-2-[(4-trifluoromethylphenyl)sulfonylmethyl]-1H-indole-3-carboxylate]
IC50 [3]: 6.1 µg/mL (≈ 10.1 µM)
DNA replication SI [3]: 2.34
IC50 [4]: 7.83 µg/mL (≈ 13 µM)
HBsAg SI [4]: 1.82
TC50 [5]: 14.25 µg/mL (≈ 23.6 µM)

CCOC(=O)c1c(CS(=O)(=O)c2cccc(C(F)(F)F)c2)n(C2CC2)c2cc(Br)c(O)c(CN3CCCC3)c12 [Example 83, Ethyl 6-bromo-1-cyclopropyl-5-hydroxy-4-(1-pyrrolidinylmethyl)-2-[(3-trifluoromethylphenyl)sulfonylmethyl]-1H-indole-3-carboxylate]
IC50 [3]: 6.38 µg/mL (≈ 10.1 µM)
DNA replication SI [3]: 5.58
IC50 [4]: 18.3 µg/mL (≈ 29.1 µM)
HBsAg SI [4]: 1.94
TC50 [5]: 35.61 µg/mL (≈ 56.6 µM)

CCOC(=O)c1c(CSCc2ccccc2)n(C2CC2)c2cc(Br)c(O)c(Cn3ccnc3)c12 [Example 91, Ethyl 6-bromo-1-cyclopropyl-5-hydroxy-4-[(1-imidazolyl)methyl]-2-(benzylthiomethyl)-1H-indole-3-carboxylate]
IC50 [1]: 15.6 µg/mL (≈ 28.9 µM)
SI [1]: 18.77
TC50 [2]: 293.37 µg/mL (≈ 543 µM)

CCOC(=O)c1c(CSCc2ccc(F)cc2)n(C)c2cc(Br)c(O)c(Cn3ccnc3)c12 [Example 92, Ethyl 6-bromo-5-hydroxy-4-[(1-imidazolyl)methyl]-1-methyl-2-[(4-fluorobenzyl)thiomethyl]-1H-indole-3-carboxylate]
IC50 [1]: 7.81 µg/mL (≈ 14.7 µM)
SI [1]: 2.35
TC50 [2]: 18.34 µg/mL (≈ 34.4 µM)

CCOC(=O)c1c(CSCc2ccc(F)cc2)n(C)c2cc(Br)c(O)c(Cn3ccnc3C)c12 [Example 100, Ethyl 6-bromo-5-hydroxy-1-methyl-4-[(2-methyl-1-imidazolyl)methyl]-2-[(4-fluorobenzyl)thiomethyl]-1H-indole-3-carboxylate]
IC50 [1]: 22.1 µg/mL (≈ 40.4 µM)
SI [1]: 2.24
TC50 [2]: 49.61 µg/mL (≈ 90.8 µM)

CCOC(=O)c1c(CSCc2ccccc2)n(C)c2cc(Br)c(O)c(CNC(=N)N)c12 [Example 104, Ethyl 6-bromo-4-(guanidinylmethyl)-5-hydroxy-1-methyl-2-(benzylthiomethyl)-1H-indole-3-carboxylate]
IC50 [1]: 13.3 µg/mL (≈ 26.4 µM)
SI [1]: 11.16
TC50 [2]: 148.65 µg/mL (≈ 294 µM)

CCOC(=O)c1c(C[S+]([O-])c2ccc(F)cc2)n(C)c2cc(Br)c(O)c(Cn3ccnc3)c12 (stereo not drawn) [Example 122, Ethyl 6-bromo-5-hydroxy-4-[(1-imidazolyl)methyl]-1-methyl-2-[(4-fluorophenyl)sulfinylmethyl]-1H-indole-3-carboxylate]
IC50 [3]: 13.6 µg/mL (≈ 25.5 µM)
DNA replication SI [3]: 3.54
IC50 [4]: 11.4 µg/mL (≈ 21.3 µM)
HBsAg SI [4]: 4.23
TC50 [5]: 48.1 µg/mL (≈ 90 µM)

CCOC(=O)c1c(C[S+]([O-])c2ccc(F)cc2)n(C)c2cc(Br)c(O)c(CNC(=N)N)c12 (stereo not drawn) [Example 153, Ethyl 6-bromo-4-(guanidinylmethyl)-5-hydroxy-1-methyl-2-[(4-fluorophenyl)sulfinylmethyl]-1H-indole-3-carboxylate]
IC50 [3]: 29.3 µg/mL (≈ 55.8 µM)
DNA replication SI [3]: 4.27
IC50 [4]: 62.2 µg/mL (≈ 118 µM)
HBsAg SI [4]: 2.01
TC50 [5]: 125 µg/mL (≈ 238 µM)
IC50 [6]: 133 µM
inhibition ratio at 0.5 ug/ml ([6]; sample concentration 0.5 ug/ml): 7.2
inhibition ratio at 2.0 ug/ml ([6]; sample concentration 2.0 ug/ml): 14.7
inhibition ratio at 10 ug/ml ([6]; sample concentration 10 ug/ml): 11.2
inhibition ratio at 50 ug/ml ([6]; sample concentration 50 ug/ml): 24.1
inhibition ratio at 250 ug/ml ([6]; sample concentration 250 ug/ml): 75.3

CCOC(=O)c1c(CSc2cccc(F)c2)n(C)c2cc(Br)c(O)c(Cn3ccnc3)c12 [Example 175, Ethyl 6-bromo-5-hydroxy-4-[(1-imidazolyl)methyl]-1-methyl-2-[(3-fluorophenyl)thiomethyl]-1H-indole-3-carboxylate]
IC50 [3]: 4.65 µg/mL (≈ 8.97 µM)
DNA replication SI [3]: 7.66
IC50 [4]: 2.45 µg/mL (≈ 4.73 µM)
HBsAg SI [4]: 14.53
TC50 [5]: 35.61 µg/mL (≈ 68.7 µM)

CCOC(=O)c1c(C[S+]([O-])c2ccc(C(F)(F)F)cc2)n(C)c2cc(Br)c(O)c(Cn3ccnc3)c12 (stereo not drawn) [Example 177, Ethyl 6-bromo-5-hydroxy-4-[(1-imidazolyl)methyl]-1-methyl-2-[(4-trifluoromethylphenyl)sulfinylmethyl]-1H-indole-3-carboxylate]
IC50 [3]: 15.9 µg/mL (≈ 27.2 µM)
DNA replication SI [3]: 6.72
IC50 [4]: 31.5 µg/mL (≈ 53.8 µM)
HBsAg SI [4]: 3.39
TC50 [5]: 106.83 µg/mL (≈ 183 µM)

CCOC(=O)c1c(CSc2nc3ccccc3[nH]2)n(C)c2cc(Br)c(O)c(Cn3ccnc3C)c12.Cl [Example 181, Ethyl 6-bromo-5-hydroxy-1-methyl-4-[(2-methyl-1-imidazolyl)methyl]-2-[(benzo[d]imidazol-2-yl)thiomethyl]-1H-indole-3-carboxylate hydrochloride]
IC50 [4]: 1.55 µg/mL
HBsAg SI [4]: 13.79
TC50 [5]: 21.38 µg/mL

Source: US7960427B2, “5-hydroxyindole-3-carboxylate derivatives and uses thereof” (priority 2004, dated 2011)
